The source of these data is ChEMBL document CHEMBL5325471, “Identification of new modulator of DNA repairing pathways based on natural product (±)-peharmaline A” (Bioorg Med Chem, 2023).

One series has as its system HCT-116. Description: Antiproliferative activity against human HCT-116 cells assessed as cell growth inhibition incubated for 44 hrs by MTT assay. It counts as functional, cell-based. Conditions: HCT-116, 44 h.
Series [1] is described as follows: Cytotoxicity against human fR2 cells assessed as cell growth inhibition incubated for 44 hrs by MTT assay. It counts as toxicity, cell-based. (Formazan colour is commonly taken as a measure of viable cells.)
Another series has as its system A549. The experiment in a line: Antiproliferative activity against human A549 cells assessed as cell growth inhibition incubated for 44 hrs by MTT assay. It counts as functional, cell-based. Conditions: A549, 44 h.
For series [2], the system named is PC-3. Description: Antiproliferative activity against human PC-3 cells assessed as cell growth inhibition incubated for 44 hrs by MTT assay. It counts as functional, cell-based. As to conditions: PC-3, 44 h.
Series [3] concerns PC-3. The experiment in a line: Cytotoxicity against human PC-3 cells. It counts as functional, cell-based.
In the next series the test system is HL-60. The experiment in a line: Cytotoxicity against human HL-60 cells. It counts as functional, cell-based.
Another series relates to SGC-7901. Description: Cytotoxicity against human SGC-7901 cells. It counts as functional, cell-based.
A further series deals with MCF7. Description: Antiproliferative activity against human MCF7 cells assessed as cell growth inhibition incubated for 44 hrs by MTT assay. It counts as functional, cell-based. As to conditions: MCF7, 44 h.

On to `COC(=O)[C@]1([C@H]2CCn3c2nc2ccccc2c3=O)NCCc2c1[nH]c1cc(OC)ccc21` (racemic), for which the IC50 (usually the midpoint of a concentration-inhibition curve) in the series on HCT-116 is 15.4 µM; in the series on A549, 5.24 µM; with PC-3 [2], 12.2 µM; in the series on PC-3 [3], 21.6 µM; in the series on HL-60, 9.2 µM; in the series with SGC-7901, 25.4 µM. Moreover, in the series with MCF7, the IC50 is 6.22 µM. The concentration for half-maximal inhibition (IC50) at 44 h in series [1] amounted to 17.9 µM.
